Test results taken from paper PMC12238850, “Molecular determinants for recognition of serotonylated chromatin” (Nucleic Acids Research, 2025).
Read-outs that look alike come from different tables or passages of the source.

Target: T1, Taf3-PHD P881E–W894F (Mus musculus, UniProt Q5HZG4, P881E/W894F)
T1 construct: Mus musculus Taf3-PHD domain (residues 857–924); GST (N, cleaved yes); made in house; host or cells: E. coli BL21(DE3), M9 minimal medium (13C/15N)
T1 sequence (Q5HZG4 857-924 P881E/W894F): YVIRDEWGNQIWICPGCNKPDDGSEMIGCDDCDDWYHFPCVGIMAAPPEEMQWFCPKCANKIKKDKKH
Experiment: NMR titration line shape analysis (TITAN), double mutant Taf3-PHD
Type: binding
Experimental: The ^13C- and ^15N-labelled Taf3-PHD NMR samples were purified as described above, with minor differences. A single colony of freshly transformed BL21(DE3) E. coli was grown in a synthetic M9 minimal medium (6.0 g/l Na2HPO4·2H2O, 3.0 g/l KH2PO4, 0.5 g/l NaCl, 25 mg/l MgSO4, 290 μg/l CaCl2, 1 μg/l FeSO4·7H2O, 270 μg/l ZnCl2, and 5 mg/l thiamine) containing 2.0 g/l ^13C-glucose as the only carbon source and 0.5 g/l ^15NH4Cl as the sole nitrogen source. Protein expression, lysis, and loading to Glutathione Sepharose™ column were performed as described above. The GST-tag was removed through on-column thrombin digestion by loading excess thrombin (SERVA) in wash buffer followed by overnight digestion at 4°C. The cleaved PHD moiety with a […] N-terminal extension (Gly–Ser–His–Met–Ala–Met–Ala) remaining from the thrombin cleavage site was collected from the flow-through and further purified in a Mono Q™ 10/100 GL as before and subsequently loaded to a Superdex-75 HiLoad 16/600 gel filtration column in NMR buffer (20 mM KPi, pH 7.0, 150 mM KCl, 10 μM ZnCl2) (Supplementary Fig. S1).
All data were recorded at 298 K on a Bruker Avance III HD 900 MHz spectrometer equipped with a cryoprobe, unless noted otherwise. Sample for assignment verification contained 0.3 mM ^13C- and ^15N-labelled PHD finger of Taf3 (residues 857–924) in NMR buffer (20 mM KPi, pH 7.0, 150 mM KCl, 10 μM ZnCl2, 0.01% NaN3, 10% D2O) in a 5-mm NMR tube. Samples for peptide interaction studies contained 0.19 mM ^13C- and ^15N-labelled PHD in NMR buffer in 3-mm NMR tubes. Lyophilized peptides were dissolved in NMR buffer including 1 mM sodium 3-(trimethylsilyl)tetradeuteriopropanionate (TSP) into 20 mM stock solutions. Upon dilution to 1 mM, all peptide solutions were at pH 7.0 in NMR buffer. Peptide concentrations were determined by comparing the integral of the Thr methyl signal (from T3, T6, and T11, total nine protons) to that of TSP using a quantitative 1D experiment (recycle delay 60 s) recorded at a Bruker Avance III 600 MHz spectrometer. Saturated complexes with H3K4me1/H3K4me2/H3K4me3 peptides with and without H3Q5ser were made by adding peptide to a 0.7 mM final concentration (3.6 equiv.). […] Additional samples were prepared using 30%, 50%, 80%, and 160% equiv. of peptide. All spectra were recorded and processed using Bruker Topspin and analysed using NMR-FAM Sparky and Poky.
For the H3K4me2 complexes, the resonance of G879 was excluded due to overlap and that of K875 was included. Spectra were processed using NMRPipe using exponential line broadening of 10/15 Hz in the direct/indirect dimension of the free induction decay before Fourier transform. Data were fit against a 1:1 binding model that also optimizes the ligand concentration to compensate for concentration errors. […]

| koff (NMR line shape fit (TITAN), P881E–W894F mutant, average ± standard error from bootstrap, read-out: koff) [s⁻¹] | koff (NMR line shape fit (TITAN), P881E–W894F mutant, read-out: koff 95% confidence limits) [s⁻¹] | SMILES | koff [s⁻¹] | koff (read-out: koff 95% confidence limits) [s⁻¹] |
| --- | --- | --- | --- | --- |
| – | – | C[C@H](N)C(=O)N[C@@H](CCCNC(=N)N)C(=O)N[C@H](C(=O)N[C@@H](CCCC[N+](C)(C)C)C(=O)N[C@@H](CCC(=O)NCCc1c[nH]c2ccc(O)cc12)C(=O)N[C@H](C(=O)N[C@@H](C)C(=O)N[C@@H](CCCNC(=N)N)C(=O)N[C@@H](CCCCN)C(=O)N[C@@H](CO)C(=O)N[C@H](C(=O)NCC(N)=O)[C@@H](C)O)[C@@H](C)O)[C@@H](C)O [H3K4me3Q5ser] | 24.2 ± 0.9 | 18 to 33 |
| 29.6 ± 0.9 | 22 to 40 | C[C@H](N)C(=O)N[C@@H](CCCNC(=N)N)C(=O)N[C@H](C(=O)N[C@@H](CCCC[N+](C)(C)C)C(=O)N[C@@H](CCC(N)=O)C(=O)N[C@H](C(=O)N[C@@H](C)C(=O)N[C@@H](CCCNC(=N)N)C(=O)N[C@@H](CCCCN)C(=O)N[C@@H](CO)C(=O)N[C@H](C(=O)NCC(N)=O)[C@@H](C)O)[C@@H](C)O)[C@@H](C)O [H3K4me3] | – | – |
